{"source": "patent EP0517160B1", "about": "“Extended-release ophthalmic preparations” (INVERNI DELLA BEFFA S.P.A., priority 1991, dated 1992)", "origin": "cited, not measured here"}
{"smiles": "C=CC1(C)CC(=O)C2(O)C(C)(O1)C(OC(C)=O)C(O)C1C(C)(C)CCC(O)C12C", "note": "(stereo not drawn) [forskoline, 7β-acetoxy-8,13-epoxy-1α,6β,9α-trihydroxy-labd-14-en-11-one]", "values": [{"measurement": "maximum of forskoline that dissolves", "setting": "poloxamer 407 25% w/v in water, at 5°C", "value": 0.12, "unit": "%"}, {"measurement": "solubility in water (in words)", "setting": "water", "value": "pratically insoluble in water"}]}
